In the NIST ThermoML archive (doi:10.1016/j.tca.2013.08.031):

Assay: molar heat capacity at constant volume
Details: Fluid (supercritical or subcritical phases), Vacuum adiabatic calorimetry

CCC(C)O (stereo not given) [butan-2-ol]
Details	molar heat capacity at constant volume [J/K/mol]
535.75 K, Mass density=276.45 kg/m3	527.97
535.77 K, Mass density=276.45 kg/m3	533.08
535.79 K, Mass density=276.45 kg/m3	548.5
535.81 K, Mass density=276.45 kg/m3	529.67
535.83 K, Mass density=276.45 kg/m3	536.49
535.85 K, Mass density=276.45 kg/m3	560.43
535.86 K, Mass density=276.45 kg/m3	562.14
535.88 K, Mass density=276.45 kg/m3	565.55
535.9 K, Mass density=276.45 kg/m3	627.07
535.92 K, Mass density=198.25 kg/m3	287.44
535.92 K, Mass density=245.67 kg/m3	437.17
535.92 K, Mass density=276.45 kg/m3	603.13
535.92 K, Mass density=279.19 kg/m3	513.14
535.92 K, Mass density=284.93 kg/m3	498.99
535.92 K, Mass density=286.65 kg/m3	532.71
535.92 K, Mass density=301.19 kg/m3	383.21
535.92 K, Mass density=347.06 kg/m3	252.01
535.94 K, Mass density=284.93 kg/m3	419.68
535.94 K, Mass density=286.65 kg/m3	578.37
535.95 K, Mass density=284.93 kg/m3	421.31
535.95 K, Mass density=286.65 kg/m3	524.41
535.97 K, Mass density=284.93 kg/m3	349.85
535.97 K, Mass density=286.65 kg/m3	524.41
535.99 K, Mass density=284.93 kg/m3	316.57
536.01 K, Mass density=284.93 kg/m3	314.87
536.01 K, Mass density=286.65 kg/m3	402.85
536.02 K, Mass density=284.93 kg/m3	309.9
536.02 K, Mass density=286.65 kg/m3	345.48
536.04 K, Mass density=284.93 kg/m3	311.53
536.04 K, Mass density=286.65 kg/m3	354.45
536.06 K, Mass density=284.93 kg/m3	311.53
536.06 K, Mass density=286.65 kg/m3	328.36
536.07 K, Mass density=284.93 kg/m3	306.57
536.07 K, Mass density=286.65 kg/m3	328.58
536.1 K, Mass density=198.25 kg/m3	281.66
536.1 K, Mass density=245.67 kg/m3	331.55
536.1 K, Mass density=279.19 kg/m3	476.23
536.1 K, Mass density=284.93 kg/m3	291.59
536.1 K, Mass density=286.65 kg/m3	323.99
536.1 K, Mass density=301.19 kg/m3	296.49
536.1 K, Mass density=347.06 kg/m3	251.27
536.29 K, Mass density=198.25 kg/m3	285.44
536.29 K, Mass density=245.67 kg/m3	329.17
536.29 K, Mass density=276.45 kg/m3	321.32
536.29 K, Mass density=279.19 kg/m3	304.71
536.29 K, Mass density=284.93 kg/m3	286.04
536.29 K, Mass density=286.65 kg/m3	321.09
536.29 K, Mass density=301.19 kg/m3	280.18
536.29 K, Mass density=347.06 kg/m3	249.79
536.47 K, Mass density=245.67 kg/m3	323.47
536.47 K, Mass density=276.45 kg/m3	313.68
536.47 K, Mass density=279.19 kg/m3	298.27
536.47 K, Mass density=284.93 kg/m3	280.77
536.47 K, Mass density=286.65 kg/m3	317.39
536.47 K, Mass density=301.19 kg/m3	281.66
536.47 K, Mass density=347.06 kg/m3	252.75
536.65 K, Mass density=245.67 kg/m3	321.24
536.65 K, Mass density=276.45 kg/m3	308.64
536.65 K, Mass density=279.19 kg/m3	293.23
536.65 K, Mass density=284.93 kg/m3	276.92
536.65 K, Mass density=286.65 kg/m3	311.53
536.65 K, Mass density=301.19 kg/m3	277.96
536.65 K, Mass density=347.06 kg/m3	246.82
536.83 K, Mass density=245.67 kg/m3	318.35
536.83 K, Mass density=276.45 kg/m3	300.12
536.83 K, Mass density=279.19 kg/m3	287.74
536.83 K, Mass density=284.93 kg/m3	274.25
536.84 K, Mass density=347.06 kg/m3	250.53
537.02 K, Mass density=279.19 kg/m3	289.37
537.02 K, Mass density=284.93 kg/m3	272.03
537.02 K, Mass density=301.19 kg/m3	263.13
537.02 K, Mass density=347.06 kg/m3	248.31
537.2 K, Mass density=245.67 kg/m3	296.34
537.2 K, Mass density=276.45 kg/m3	295.37
537.2 K, Mass density=279.19 kg/m3	287.81
537.2 K, Mass density=284.93 kg/m3	271.51
537.2 K, Mass density=286.65 kg/m3	304.94
537.2 K, Mass density=301.19 kg/m3	266.84
537.38 K, Mass density=245.67 kg/m3	296.56
537.38 K, Mass density=276.45 kg/m3	285.37
537.38 K, Mass density=279.19 kg/m3	282.48
537.38 K, Mass density=284.93 kg/m3	270.32
537.38 K, Mass density=286.65 kg/m3	304.42
537.38 K, Mass density=301.19 kg/m3	263.13
537.57 K, Mass density=245.67 kg/m3	297.52
537.57 K, Mass density=276.45 kg/m3	284.11
537.57 K, Mass density=279.19 kg/m3	284.26
537.57 K, Mass density=284.93 kg/m3	268.17
537.57 K, Mass density=286.65 kg/m3	301.23
537.57 K, Mass density=301.19 kg/m3	260.17
537.75 K, Mass density=276.45 kg/m3	282.92
537.75 K, Mass density=284.93 kg/m3	267.36
537.75 K, Mass density=286.65 kg/m3	302.27
537.75 K, Mass density=301.19 kg/m3	260.17
537.93 K, Mass density=117 kg/m3	227.92
537.93 K, Mass density=279.19 kg/m3	277.21
537.93 K, Mass density=286.65 kg/m3	301.23
537.93 K, Mass density=301.19 kg/m3	259.43
538.11 K, Mass density=117 kg/m3	182.93
538.11 K, Mass density=279.19 kg/m3	274.92
538.11 K, Mass density=301.19 kg/m3	253.5
538.3 K, Mass density=279.19 kg/m3	277.66
538.3 K, Mass density=286.65 kg/m3	295.15
538.3 K, Mass density=301.19 kg/m3	255.72
538.48 K, Mass density=117 kg/m3	269.06
